Test [1] deals with secreted phospholipase A2 (PLA2) (Apis mellifera, UniProt P00630). Nature of the test: biochemical. The following applies: read-out: Inhibition of PLA2.
For test [2], the target named is T1, Lipase from porcine pancreas (PL) (Sus scrofa, UniProt P00591).
T1 sequence (P00591 1-450): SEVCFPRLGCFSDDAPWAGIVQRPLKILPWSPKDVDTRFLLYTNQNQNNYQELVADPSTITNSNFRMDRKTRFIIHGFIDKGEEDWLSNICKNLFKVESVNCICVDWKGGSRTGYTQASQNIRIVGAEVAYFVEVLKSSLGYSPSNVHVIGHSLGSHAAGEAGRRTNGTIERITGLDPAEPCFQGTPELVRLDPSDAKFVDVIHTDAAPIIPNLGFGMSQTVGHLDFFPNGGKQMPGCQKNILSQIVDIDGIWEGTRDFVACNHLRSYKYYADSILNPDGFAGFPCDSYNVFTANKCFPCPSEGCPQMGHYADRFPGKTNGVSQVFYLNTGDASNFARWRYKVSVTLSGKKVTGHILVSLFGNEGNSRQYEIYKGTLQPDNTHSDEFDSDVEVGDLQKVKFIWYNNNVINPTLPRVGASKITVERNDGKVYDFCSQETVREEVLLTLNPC
Nature of the test: Pancreatic lipase inhibition assay in vitro. Format: biochemical. The settings on record: read-out: Inhibition of PL.

Test [3] has as its system PLA2. The settings on record: at 2 mM; cited from earlier work.

For orientation: inhibition means the change of the read-out against control, counted positive when it falls.

secreted phospholipase A2 (PLA2), sequence (P00630 34-167 limits assumed): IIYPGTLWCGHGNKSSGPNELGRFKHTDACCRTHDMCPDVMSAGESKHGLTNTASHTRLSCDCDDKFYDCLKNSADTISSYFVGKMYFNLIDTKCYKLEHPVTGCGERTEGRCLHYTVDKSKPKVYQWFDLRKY

Take `Oc1cc(O)c2c(c1)O[C@H](c1ccc(O)c(O)c1)[C@H](O)C2` [EC, (−)-epicatechin]: the inhibition at 100 µM in test [1] was found to be 4.5%. For the same molecule, the inhibition at 20 µM in test [2] was 15%.
Regarding `O=C(O[C@@H]1Cc2c(O)cc(O)cc2O[C@@H]1c1cc(O)c(O)c(O)c1)c1cc(O)c(O)c(O)c1` [EGCG], the “Inhibition of PLA2 in vitro” value in test [3] is on record as 64.9%.
`CCCCCCCCCCC[C@@H](C[C@@H]1OC(=O)[C@H]1CCCCCC)OC(=O)[C@H](CC(C)C)NC=O` [Orlistat]: the inhibition at 10 µM in test [2] amounted to 72%.
